Counter-ions that a name gives are not always drawn.
Legend:
[1] = biological target: T1, human synovial fluid PLA2 (Homo sapiens, UniProt P14555); assay: in vitro isolated phospholipase A2 assay, human synovial fluid PLA2 (Example 74); format: biochemical; design: inhibition / % Inhibition, HSF (human synovial fluid): dose or concentration left out as unconfirmed; details: for inhibition: read-out: % Inhibition, HSF (human synovial fluid); for IC50: Table III, read-out: IC50 HSF (human synovial fluid)
T1 sequence (P14555 21-144): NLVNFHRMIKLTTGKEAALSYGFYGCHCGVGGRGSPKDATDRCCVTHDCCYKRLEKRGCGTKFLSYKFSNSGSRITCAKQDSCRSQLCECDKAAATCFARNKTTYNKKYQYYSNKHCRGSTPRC
Procedure: The compounds of the invention are tested in an in vitro isolated phospholipase A2 assay to determine the ability of the test compounds to inhibit the release of arachidonic acid from an arachidonic acid-containing substrate by the action of phospholipase A2 enzyme from human and non-human sources.
(§1) This assay is carried out as follows:
Into a 15 mL polypropylene tube are added the following:
^6 Two human PLA2 enzymes are used:
b) Purified human synovial fluid.
Incubate the 100mL reaction mixture for 10 minutes at 37° C. in a shaking water bath. The reaction is terminated by the addition of 2 mL tetrahydrofuran, followed by vortexlag. NH2 columns (100 mg/mL--Analytichem International) are conditioned with 0.5 mL tetrahydrofuran followed by 0.5 mL tetrahydrofuran/water (2 mL:0.1 mL, v/v).
The sample is loaded onto the columns and slowly drawn through them. The hydrolyzed arachidonic acid retained in the columns is eluted therefrom with 1 mL tetrahydrofuran/glacial acetic acid (2%). The arachidonic acid is transferred to scintillation vials and quantitated by b-counting analysis. A "total counts" sample is prepared by pipetting […] ^3 H-arachidonate E. coli directly into a scintillation vial to which is added 1 mL tetrahydrofuran. 10 mL aquasol (scintillation cocktail) is added to all samples. [formula]

[2] = test system: 5-lipoxygenase in human whole blood; assay: inhibition of 5-lipoxygenase in human whole blood (Example 79); format: cell-based; details: for IC50: human whole blood, read-out: IC50 (inhibition of LTB4)
Procedure: The assay of this Example measures the ability of the compounds tested to inhibit 5-lipoxygenase in human whole blood.
as §1
Blood is obtained in 50-100 ml quantities from male donors. White blood cell counts and differentials are made. Two ml of blood are placed in a 15 ml polypropylene test tube. Compounds are solubilized in dimethylsulfoxide and diluted 1:10 in 10% bovine serum albumin in phosphate buffered saline, pH 7.4 resulting in a final dimethylsulfoxide concentration of 0.1% in the blood. Then, compounds are added to the blood in a shaking water bath at 37° C. for 10 minutes prior to the addition of […] calcium ionophore (A23187; Sigma). After ionophore administration, whole blood samples are mixed and incubated for 20 minutes at 37° C. in a shaking water bath. Incubation is terminated by placing samples in an ice bath and immediately adding ethylene glycol-bis-(b-aminoethyl ether)-N,N,N',N'-tetraacetic acid (10 mM). Samples are mixed and centrifuged at 1200 × g for 15 minutes at 4° C. Preparation of samples for evaluation by RIA or ELISA is carried out by the following protocol. Plasma is removed from sample tubes, placed in 15 ml polypropylene test tubes containing 8 ml methanol, and then vortexed to precipitate protein. Samples are stored at -70° C. overnight. The next day, samples are centrifuged at 200 × g for 15 minutes at 4° C. to pellet the precipitate. Samples are dried in a Savant speed vac concentrator, reconstituted to original volume with ice cold RIA or ELISA buffer, and stored at -70° C. until assayed. The assay for eicosanoids (LTB4, T×B2, and PGE2) is performed as described by the manufacturer of the [^3 H]-RIA kit or ELISA kit (LTB4 -Amersham, TxB2 and PGE2 - Caymen Chemical).
The total eicosanoid level in 2 ml of blood is calculated and reported as ng/10^6 neutrophils. […] Drug effects are expressed as percent change from control values.
Compounds tested in vitro are solubilized in dimethylsulfoxide and diluted 1:10 in 10% bovine serum albumin in phosphate buffer saline resulting in a final dimethylsulfoxide concentration of 0.1% i n the blood.

Row | Compound | % Inhibition of LTB4 ([2]; 25 μM) | inhibition [1] | further results
1 | 1-[(4-Chlorophenyl)methyl]-5-(2-quinolinylmethoxy)-1H-indole-3-acetic acid [Example 32] | – | – | % Inhibition, HSF (human synovial fluid) [1]: 36%
2 | Cc1c(CC(=O)N(C)O)c2cc(OCc3ccc4ccccc4n3)ccc2n1Cc1ccc(Cl)cc1 [Example 22, 1-[(4-Chlorophenyl)methyl]-2-methyl-N-(methyl)-N-(hydroxy)-5-(2-quinolinylmethoxy)-1H,indole-3-acetamide three quarters hydrate] | 78% | – | IC50 [2]: 39.8 µM
3 | Cc1c(CC(=O)NS(=O)(=O)c2ccccc2)c2cc(OCc3ccc4ccccc4n3)ccc2n1Cc1ccc(Cl)cc1 [Example 23] | – | 64% | –
4 | Cc1c(CC(=O)O)c2cc(OCc3ccc4ccccc4n3)ccc2n1Cc1ccc(C(=O)O)cc1 [Example 27, 1-[(4-Carboxyphenyl)methyl]-2-methyl-5-(2-quinolinylmethoxy)-1H-indole-3-acetic acid] | – | 45% | –
5 | Cc1c(CC(=O)O)c2cc(OCc3ccc4ccccc4n3)ccc2n1Cc1ccc(OCc2ccc3ccccc3n2)cc1 [Example 28, 2-Methyl-5-(2-quinolinylmethoxy)-1-[[4-(2-quinolinylmethoxy)phenyl]methyl]-1H-indole-3-acetic acid hemihydrate] | – | 41% | –
6 | O=C(O)Cc1cn(Cc2ccc(Cl)cc2)c2ccc(OCc3ccc4ccccc4n3)cc12 [Example 33, 1-[(4-Chlorophenyl)methyl]-5-(2-quinolinylmethoxy)-1H-indole-3-acetic acid] | – | 38% | –
7 | Cc1c(CC(=O)O)c2cc(OCc3ccc4ccccc4c3)ccc2n1Cc1ccc(Cl)cc1 [Example 34, 1-[(4-Chlorophenyl)methyl]-2-methyl-5-(2-naphthalenylmethoxy)-1H-indole-3-acetic acid] | – | – | IC50 [1]: 33.7 µM
8 | Cc1c(CC(=O)O)c2cc(OCc3ccccc3)ccc2n1Cc1ccc(Cl)cc1 [Example 35, 1-[(4-Chlorophenyl)methyl]-2-methyl-5-(phenylmethoxy)-1H-indole-3-acetic acid] | – | 28% | IC50 [1]: 52.9 µM
9 | Cc1c(CC(=O)O)c2cc(OCc3ccccn3)ccc2n1Cc1ccc(Cl)cc1 [Example 36, 1-[(4-Chlorophenyl)methyl]-2-methyl-5-(2-pyridinylmethoxy)-1H-indole-3-acetic acid] | – | 46% | –
10 | Cc1c(CC(=O)O)c2cc(OCc3nc4ccccc4s3)ccc2n1Cc1ccc(Cl)cc1 [Example 37, 1-[(4-Chlorophenyl)methyl]-2-methyl-5-(2-benzothiazolylmethoxy)-1H-indole-3-acetic acid] | – | 39% | –
11 | Cc1c(CC(=O)O)c2cc(OCc3csc(-c4ccccc4)n3)ccc2n1Cc1ccc(Cl)cc1 [Example 38, 1-[(4-Chlorophenyl)methyl]-2-methyl-5-[(2-phenyl-4-thiazolyl)methoxy]-1H-indole-3-acetic acid] | – | 31% | –
12 | Cc1c(CC(=O)O)c2cc(OCc3csc(-c4ccc(C(F)(F)F)cc4)n3)ccc2n1Cc1ccc(Cl)cc1 [Example 39, 1-[(4-Chlorophenyl)methyl]-2-methyl-5-[[2-(4-trifluoromethylphenyl)-4-thiazolyl]methoxy]-1H-indole-3-acetic acid] | – | 46% | –
13 | Cc1c(CC(=O)O)c2cc(OCc3csc(-c4ccccc4)n3)ccc2n1Cc1ccccc1 [Example 40, 1-[(Phenyl)methyl]-2-methyl-5-[(2-phenyl-4-thiazolyl)methoxy]-1H-indole-3-acetic acid] | – | 42% | –
14 | Cc1c(CNC(=O)NO)c2cc(OCc3ccc4ccccc4n3)ccc2n1Cc1ccc(Cl)cc1 [Example 42, N-[[1-[(4-Chlorophenyl)methyl]-2-methyl-5-(2-quinolinylmethoxy)-1H-indol-3-yl]methyl]-N'-hydroxyurea] | 89% | – | IC50 [2]: 5.6 µM
15 | CC1=C(CC(=O)N(C)O)c2cc(F)ccc2C1=Cc1ccc(OCc2ccc3ccccc3n2)cc1 [Example 44, 5-Fluoro-N-hydroxy-N,2-dimethyl-1-[[4-(2-quinolinylmethoxy)penyl]methylene]-1H -indene-3-acetamide hydrochloride] | 94% | – | IC50 [2]: 4.5 µM
16 | CCOC(=O)Cc1c(C)n(Cc2ccc(SC)cc2)c2ccc(OCc3nc4ccccc4s3)cc12 [Example 53, 5-(2-Benzothiazolylmethoxy)-1-[[4-(methylthio)phenyl]methyl]-2-methyl-1H-indole-3-acetic acid ethyl ester] | 80% | 1% | –
17 | Cc1c(CC(=O)N(C)O)c2cc(OCc3csc(-c4ccccc4)n3)ccc2n1Cc1ccccc1 [Example 57, N-hydroxy-5-[(2-phenyl-4-thiazolyl)methoxy]-1-(phenylmethyl)-N,2-dimethyl-1H-indole-3-acetamide] | – | – | IC50 [2]: 43.3 µM
18 | CSc1ccc(Cn2c(C)c(CC(=O)O)c3cc(OCc4csc(-c5ccccc5)n4)ccc32)cc1 [Example 58, 5-[(2-Phenyl-4-thiazolyl)methoxy]-1-[[(4-methylthio)phenyl]methyl]-2-methyl-1H -indole-3-acetic acid] | – | 43% | –
19 | CCOC(=O)Cc1c(C)n(Cc2cccc(OC)c2)c2ccc(OCc3csc(-c4ccccc4)n3)cc12 [Example 59, 5-[(2-Phenyl-4-thiazolyl)methoxy]-1-[[(3-methoxy)phenyl]methyl]-2-methyl-1H-indole-3-acetic acid ethyl ester] | – | 6% | –
20 | CCOC(=O)Cc1c(C)n(Cc2ccc(C(C)(C)C)cc2)c2ccc(OCc3csc(-c4ccccc4)n3)cc12 [Example 61, 5-[(2-Phenyl-4-thiazolyl)methoxy]-1-[[4-(1,1-dimethylethyl)phenyl]methyl]-2-methyl-1H-indole-3-acetic acid ethyl ester] | 5% | – | –
21 | Cc1c(CC(=O)O)c2cc(OCc3csc(-c4ccccc4)n3)ccc2n1Cc1ccc2ccccc2c1 [Example 67, 5-[(2-Phenyl-4-thiazolyl)methoxy]-1-(2-nanhthalenylmethyl)-2-methyl-1H-indole-3-acetic acid] | 30% | 49% | –
22 | CC(c1cc2ccccc2s1)N(O)C(N)=O (stereo not drawn) [Example A-64077, reference compound] | 72% | – | IC50 [2]: 3 µM
23 | CC(C)c1ccc2c(c1)c(SC(C)(C)C)c(CC(C)(C)C(=O)O)n2Cc1ccc(Cl)cc1 [L-663,536, reference compound] | – | – | % Inhibition of LTB4 ([2]; 3 μM): 96%

From patent US5420289A, “Substituted indole-, indene-, pyranoindole- and tetrahydrocarbazole-alkanoic acid derivatives as inhibitors of PLA2 and lipoxygenase” (American Home Products Corporation, priority 1993, dated 1995)
